Results: article PMC2578980 (The Yale Journal of Biology and Medicine, 1998)

What was measured:
human CCK-BR [1] = molecular target: T1, human CCK-BR (Homo sapiens, UniProt P32239); assay: Inositol phosphate accumulation; format: cell-based; conditions: for effect on inositol phosphate production (intrinsic activity): high concentrations of non-peptide ligands
T1 sequence (P32239 1-447): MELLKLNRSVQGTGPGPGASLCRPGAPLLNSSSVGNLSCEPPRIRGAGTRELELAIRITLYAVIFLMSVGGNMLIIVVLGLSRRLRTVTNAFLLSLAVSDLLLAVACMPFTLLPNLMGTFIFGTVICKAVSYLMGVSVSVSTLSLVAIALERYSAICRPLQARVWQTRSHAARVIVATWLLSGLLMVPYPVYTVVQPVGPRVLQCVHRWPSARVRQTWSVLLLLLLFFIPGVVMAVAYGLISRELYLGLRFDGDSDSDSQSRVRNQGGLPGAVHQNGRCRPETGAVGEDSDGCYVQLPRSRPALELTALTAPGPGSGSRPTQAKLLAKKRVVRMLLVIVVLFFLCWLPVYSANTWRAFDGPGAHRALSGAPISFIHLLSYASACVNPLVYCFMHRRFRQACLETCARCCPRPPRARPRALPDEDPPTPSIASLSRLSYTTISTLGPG

gastric acid secretion = conditions: cited from earlier work
human CCK-BR [2] = molecular target: T1, human CCK-BR
human CCK-BR [3] = molecular target: T1, human CCK-BR; conditions: human CCK-BR expressed in CHO instead of COS-7 cells; cited from earlier work

| Structure (SMILES) | inositol phosphate formation, percent of the CCK-8 induced maximum (human CCK-BR [1]) [%] | intrinsic activity in the rat (gastric acid secretion) | effect on inositol phosphate production (intrinsic activity) (human CCK-BR [1]) | blockade of CCK-8 induced inositol phosphate formation (human CCK-BR [2]) | functional classification in CHO cells (human CCK-BR [3]) |
| --- | --- | --- | --- | --- | --- |
| C[C@](Cc1c[nH]c2ccccc12)(NC(=O)OC1C2CC3CC(C2)CC1C3)C(=O)NC[C@H](NC(=O)/C=C/C(=O)O)c1ccccc1 (stereo partly shown) [PD 136,450] | 43 | no appreciable intrinsic activity |  |  |  |
| Cc1cccc(NC(=O)N[C@@H]2N=C(c3ccccc3)c3ccccc3N(CC(=O)c3ccccc3C)C2=O)c1 [YM022, (R)-1-[2,3-dihydro-1-(2'-methylphenacyl)-2-oxo-5-phenyl-1H-1,4-benzodiazepin-3-yl]-3-(3-methylphenyl)urea] |  |  | little, if any, effect | completely blocks |  |
| Cc1cccc(NC(=O)N[C@@H]2N=C(c3ccccc3)c3ccccc3N(C)C2=O)c1 [L-365,260] |  |  | little, if any, effect |  |  |
| CC1(C)[C@H]2CC[C@@]1(C)[C@H](OC(=O)N[C@](C)(Cc1c[nH]c3ccccc13)C(=O)NC[C@H](NC(=O)CCC(=O)O)c1ccccc1)C2 [PD 135,158] | 23 |  |  |  | "true" antagonist |
